Source: patent publication US7855228B2, “Antibiotics targeting MreB” (The Board of Trustees of the Leland Stamford Junior …, priority 2005, dated 2010)

Experiments:
[1] = tested on: S. typhimurium; assay: Induction of spherical cells; assay type: cell-based
Source text: (§1) A22 was effective against Gram-negative rod-shaped bacteria.

[2] = tested on: P. putida; assay: Induction of spherical cells; assay type: cell-based
Source text: as §1

[3] = tested on: B. subtilis; assay: Induction of spherical cells; assay type: cell-based
Source text: as §1

[4] = target: T1, GFP-MreB (Caulobacter vibrioides, UniProt A0A0H3C7V4); assay: GFP-MreB localization; assay type: cell-based, Caulobacter crescentus
T1 construct: expressed in transfected cells; host or cells: Caulobacter crescentus CB15N derivative, xylose-inducible Pxyl:gfp-mreB
Protocol: (§2) A22 Rapidly and Reversibly Delocalizes GFP-MreB. During the Caulobacter cell cycle, MreB forms a lengthwise spiral in swarmer cells and stalked cells. It then appears to condense into an increasingly tight ring positioned at the future site of cell division. When cytokinesis initiates, this ring is replaced by a lengthwise spiral, such that upon cell division each daughter cell inherits a fully expanded spiral. […] Since 10 μg/ml of A22 strongly delocalizes GFP-MreB and blocks cell division without completely inhibiting cell growth, we have chosen to focus most of our subsequent A22 studies on this concentration.
(§3) The onset of A22's effect on GFP-MreB is very rapid: within 1 min the GFP-MreB already delocalized (FIG. 4B). A22's effect on GFP-MreB is also rapidly reversible. Diluting the A22 concentration of cells treated with A22 for 1 hr by mounting them on pads lacking A22 leads to a full recovery of MreB localization within 1 min (FIG. 4C). GFP-MreB was monitored in the same cells before, during, and after A22 treatment by timelapse imaging cells in a flow chamber that allows A22 to be washed in and out (FIGS. 4D-4F). […] Cells generally retained a memory of the MreB structure present before A22 treatment (FIGS. […]). Cells with rings recovered rings, cells with spirals recovered spirals, and cells with partially compacted rings recovered partially compacted rings. These findings are consistent with MreB's localization being determined by extrinsic factors regulated by the cell cycle state, rather than an intrinsic MreB localization cycle.
(§4) We constructed a fusion of the most common A22-resistant mreB missense mutation (T158A) to GFP and asked if the cellular organization of this MreB mutant is maintained in 10 μg/ml of A22. This fusion was expressed in the corresponding A22-resistant strain, producing merodiploid cells containing both GFP-tagged and -untagged mutated mreB, but no wild-type mreB. […] Since this mutation in the MreB ATP binding pocket perturbs MreB dynamic localization, nucleotide hydrolysis may play a role in regulating MreB dynamics.
(§5) Microscopy and Timelapse Imaging. All experiments other than the A22 flow-cell analysis were performed by mounting the samples on 1% agarose pads as described, with the appropriate concentration of A22 added to the agarose. The rates of origin-distal locus segregation were determined by inducing PxyI:lacI:cfp expression with 0.03% xylose for 75 min, isolating swarmer cells, and growing the swarmer cells in M2G liquid medium for 50 min. After 50 min, 10 μg/ml of A22 was added to these liquid cultures, they were mounted onto 1% M2G agarose pads containing 10 μg/ml A22, and a phase and CFP fluorescence image was captured every 2 min for 60 min. The images were analyzed by previously described software to determine the average position and rate of movement of the observed foci.
(§6) The A22 flow-cell treatment timelapse images were performed on PxyI:gfp-mreB cells induced for 2 hr with 0.03% xylose. These cells were adhered to polylysine-coated cover slips. The cover slips were then adhered to microscope slides with two parallel strips of double-sided tape (3M), leaving a central channel. An excess of medium containing 0 or 10 μg/ml A22 was pipetted onto one opening of this channel and wicked through by placing a tissue (VWR) on the other end. Images were collected every 30 s.

[5] = target: T2, GFP-MreB (Caulobacter vibrioides, UniProt A0A0H3C7V4, T167A); assay: GFP-MreB localization; assay type: cell-based, Caulobacter crescentus; details: 10 μg/ml; A22-resistant strain
T2 construct: expressed in transfected cells; host or cells: Caulobacter crescentus CB15N derivative, xylose-inducible Pxyl:gfp-mreB
Protocol: as §2, §3, §4, §5, §6

T1 sequence (A0A0H3C7V4 whole entry): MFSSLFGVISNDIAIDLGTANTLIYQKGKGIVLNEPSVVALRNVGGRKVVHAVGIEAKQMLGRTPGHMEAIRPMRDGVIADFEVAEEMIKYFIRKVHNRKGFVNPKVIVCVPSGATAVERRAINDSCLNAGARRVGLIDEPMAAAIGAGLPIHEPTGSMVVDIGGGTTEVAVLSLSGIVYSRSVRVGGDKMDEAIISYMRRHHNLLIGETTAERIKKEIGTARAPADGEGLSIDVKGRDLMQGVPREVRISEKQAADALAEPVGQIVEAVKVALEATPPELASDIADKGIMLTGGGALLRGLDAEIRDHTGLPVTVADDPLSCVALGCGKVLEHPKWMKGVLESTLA
T2 sequence (A0A0H3C7V4 whole entry T167A): as the sequence (A0A0H3C7V4 whole entry) above, with T167A counted along it

N=C(N)SCc1ccc(Cl)c(Cl)c1 [Compound 1, S-(3,4-dichlorobenzyl)isothiourea]
Induction of spherical cells in S. typhimurium [1]: induced spherical cells | Induction of spherical cells in P. putida [2]: induced spherical cells | Induction of spherical cells in B. subtilis [3]: did not | GFP-MreB localization (puncta and bands) ([4]; 1 μg/ml or less): largely maintained | Onset of GFP-MreB delocalization ([4]; 10 μg/ml): ≤ 1 min | GFP-MreB localization ([4]; 10 or 100 μg/ml): completely disrupted this GFP-MreB localization | Full recovery of MreB localization after diluting A22 ([4]; cells treated 1 hr, mounted on pads lacking A22): ≤ 1 min | Localization of mutated (T158A) GFP-MreB [5]: completely unaffected
